Consider 11 compounds from patent publication US4822805A, “Pyridyl-imidazole compounds which have useful pharmaceutical activity” (Fujisawa Pharmaceutical Co., Ltd., priority 1986, dated 1989).

In brackets after ≈: the same amount, converted by molar mass.

Test [1] has as its system left ventricular pressure (dp/dt max). The test is described as follows: Cardiotonic activity, Test 1: dp/dt max change in anesthetized dogs. To be noted: 1.0 mg/kg, injected into the femoral vein. Type of test: in vivo, Mongrel dogs. How it is done: Mongrel dogs of either sex were anesthetized with sodium pentobarbital, 35 mg/kg, i.p.. The animals were allowed to breathe spontaneously. The left carotid artery was isolated and a catheter (USCI, #8F) filled with heparinized saline was inserted and advanced into the left ventricle. The catheter was connected to a pressure transducer (Nihonkohden, MPU-0.5A) to measure the left ventricular pressure, from which dp/dt max was derived by analog computing. The measure the systemic blood pressure the left femoral artery was cannulated. The blood pressure pulse was used to trigger a heart rate meter. Another catheter was positioned in the vena cave through right femoral vein for injection of drugs. Systemic blood pressure, left ventricular pressure, dp/dt max and heart rate was recorded simultaneously on a polygram (Nihonkohden, RJG-4008).
Test compound was dissolved in distilled water (0.2 ml/kg) or dimethyl sulfoxide (0.04 ml/kg) and injected into the femoral vein. The parameters after dosing were compared with those during the predosing period.
Test results were represented in terms of percentage of dp/dt max changes (dp/dt M.C.) calculated by following formula. [formula]

A further test relates to atrial strip. Kind of test: Cardiotonic activity, Test 2: contractile force and heart rate of isolated atrial strip. Details: species or system Male Hartley strain guinea-pigs. To be noted: Cavia porcellus, 0.5 h; 1 × 10^-5 g/ml; 30° C.; observed for 30 min; percentage before and after dosing. On the procedure:
Male Hartley strain guinea-pigs, weighing 530-600 g, were killed by bleeding and the heart was removed. An atrial strip was removed and suspended in an organ bath containing 50 ml of Tyrode's solution maintained at 30° C. and aerated with a gas mixture of 95% O2 -5% CO2. The atrium was connected to a strain gauge under an initial tension of 0.4-0.6 g. […] The effect was expressed as percentage values before and after dosing.

Test [2] concerns Platelet aggregation (collagen). Kind of test: Anti-platelet activity, Test 3: collagen-induced platelet aggregation in blood after oral administration. The test is classed as in vivo, Male Sprague-Dawley rats. To be noted: 32 mg/kg oral, blood collected one hour after; collagen 5.0 μg/ml. On the procedure: Male Sprague-Dawley rats weighing about 250 g were used after overnight fasting. One hour after oral administration of test compound or vehicle of test compound (control), blood was collected into a tube containing 0.1 vol. of 3.8% sodium citrate. To the 0.45 ml of blood, 0.05 ml of collagen (final concentration 5.0 μg/ml) was added and then incubated for 5 min. at 37° C. under shaking. The reaction was terminated by addition of 1 ml of 10 mM phosphate buffered saline (pH 7.4) containing 11.5 mM EDTA and 1% formalin. The reaction mixture was centrifuged at 70 xg for 5 min. and platelet count of upper phase was measured by Technicon Auto Analizer.
Platelet aggregation was calculated according to the following formula: [formula] A: Platelet count after addition of vehicle of collagen B: Platelet count after addition of collagen.
Inhibition of the test compound was calculated according to the following formula. [formula] C: Platelet aggregation (%) of control D: Platelet aggregation (%) of Test compound.

The subject of another test is carrageenin foot edema. Kind of test: Anti-inflammatory activity, Test 5: carrageenin foot edema. Type of test: in vivo, Male Sprague-Dawley rats. The settings on record: 32 mg/kg oral, 60 minutes before phlogogen; edema volume 3 hours after phlogogen; 1% carrageenin. How it is done:
Male Sprague-Dawley rats weighing about 180 g were used in groups of five. Paw edema was induced by subplantar injection of 1% carrageenin (0.1 ml/rat) into the right hind paw in carrageenin foot edema. The test compound was suspended in methylcellulose and administered orally 60 minutes before halogogen. Paw volume was measured with plethysmometer (Ugo Basil Co., Ltd.) by water displacement immersing the paw to the lateral malleolus. The difference of paw volume before and 3 hours after the phlogogen was designated as edema volume.
The data was analyzed statistically by student's t-test.
In general terms: Carrageenan injected into the paw causes an acute inflammation.

For test [3], the system named is Platelet aggregation (9,11-azo PGH2). Kind of test: Anti-platelet activity, Test 4: 9,11-azo PGH2-induced platelet aggregation in platelet rich plasma. The test is classed as cell-based, rabbits. The settings on record: Oryctolagus cuniculus, rabbit PRP, 9,11-azo PGH2 1.0 μM, 37° C. How it is done:
The blood was collected from the carotid artery of rabbits into plastic vessels containing 0.1 volume of 3.8% sodium citrate. Platelet rich plasma (PRP) was prepared by centrifugation at 150 g for 15 minutes. Platelet aggregation was investigated by using the turbidimetric method with an aggregometer (NKK HEMATRACER 1). To the 225 μl of PRP, 25 μl of test compound solution was added, and then stirred at 1000 rpm for 2 minutes at 37° C. To the solution 5 μl of 9,11-azo PGH2 (final 1.0 μM) was added as an aggregating inducer.

For the compound `COc1ccc(-c2nc(-c3cccnc3)c(C)[nH]2)c(OC)c1` [Compound a, 2-(2,4-Dimethoxyphenyl)-5-methyl-4-(3-pyridyl)imidazole], the “dp/dt M.C. (percentage of dp/dt max changes)” value in test [1] is reported as 82%. In the test with atrial strip, the activation at 10 µg/mL worked out at 45% and the inhibition at 10 µg/mL was found to be 21.2%.

Regarding `CCc1nc(-c2ccc(OC)cc2OC)[nH]c1-c1cccnc1` [Compound b, 2-(2,4-Dimethoxyphenyl)-4-ethyl-5-(3-pyridyl)imidazole], the “dp/dt M.C. (percentage of dp/dt max changes)” value in test [1] was determined as 133%.

Turning to `COc1cc(SC)ccc1-c1nc(-c2cccnc2)c(C)[nH]1` [Compound c, 2-(2-Methoxy-4-methylthiophenyl)-5-methyl-4-(3-pyridyl)imidazole], in test [1], the “dp/dt M.C. (percentage of dp/dt max changes)” value is reported as 167%.

In the test with atrial strip, `CCc1[nH]c(-c2ccc(OC)c(OC)c2)nc1-c1ccccn1` [Compound d, 2-(3,4-Dimethoxyphenyl)-5-ethyl-4-(2-pyridyl)imidazole] displayed an activation at 10 µg/mL of 51.6% and an inhibition at 10 µg/mL of 14.1%.

For the compound `COc1ccc(-c2nc(-c3ccncc3)c(C)[nH]2)c(OC)c1` [Compound e, 2-(2,4-Dimethoxyphenyl)-5-methyl-4-(4-pyridyl)imidazole], in the test with atrial strip, the activation at 10 µg/mL amounted to 58% and testing at 10 µg/mL gave an inhibition of 26.8%.

In the test on atrial strip, `CCc1[nH]c(-c2ccc(OC)cc2OC)nc1-c1ccncc1` [Compound f, 2-(2,4-Dimethoxyphenyl)-5-ethyl-4-(4-pyridyl)imidazole] displayed an activation at 10 µg/mL of 61.1% and an inhibition at 10 µg/mL of 30.7%.

On to `COc1cc(NC(C)=O)c(Cl)cc1-c1nc(-c2cccnc2)c(C)[nH]1` [Compound g, 2-(4-Acetamido-5-chloro-2-methoxyphenyl)-5-methyl-4-(3-pyridyl)imidazole], for which the “Inhibition (platelet aggregation)” value in test [2] came to 87.6%.

`COc1ccccc1-c1nc(-c2cccnc2)c(C)[nH]1` [Compound h, 2-(2-Methoxyphenyl)-5-methyl-4-(3-pyridyl)imidazole]: the “Inhibition (paw edema)” value with carrageenin foot edema is recorded as 62.7%.

On to `Cc1nc(-c2ccccc2F)[nH]c1-c1cccnc1` [Compound i, 2-(2-Fluorophenyl)-4-methyl-5-(3-pyridyl)imidazole], for which the IC50 in test [3] was determined as 0.11 µg/mL (≈ 0.434 µM). In test [2], the “Inhibition (platelet aggregation)” value worked out at 100%.

As to `CC(=O)Nc1ccccc1-c1nc(C)c(-c2cccnc2)[nH]1` [Compound j, 2-(2-Acetamidophenyl)-4-methyl-5-(3-pyridyl)imidazole], the midpoint of inhibition in test [3], the IC50, lay at 0.39 µg/mL (≈ 1.33 µM). For the same compound, the “Inhibition (platelet aggregation)” value in test [2] worked out at 91.3%.

For the compound `COc1cc(Cl)ccc1-c1nc(-c2cccnc2)c(C)[nH]1` [Compound k, 2-(4-Chloro-2-methoxyphenyl)-5-methyl-4-(3-pyridyl)imidazole], half-maximal inhibition in test [3] (IC50) was put at 0.16 µg/mL (≈ 0.534 µM). Moreover, the “Inhibition (paw edema)” value in the test on carrageenin foot edema came out at 72.3%.

Usually inhibition stands for the percentage by which the read-out fell short of the control. One may read the IC50 as the midpoint of a concentration-inhibition curve. Read a low IC50 as greater potency in that assay.
